Legend:
[1] = Degree of polymerization of PAC by titration; assay type: physicochemical; conditions: native sucralfate
Procedure: Experiments were performed to determine the degree of polymerization in AF-LuCI by using the titration-based methods as described in Nail, S. L., White, J. L. & Hem, S. L. Structure of Aluminum Hydroxide Gel I: Initial Precipitate. Journal of Pharmaceutical Sciences 65, 1188-1191 (1976); and Hem, J. D. & Roberson, C. E. Form and stability of aluminum hydroxide complexes in dilute solution. Geol Surv Water-Supply Pap(US)(United States) (1967). The degree of polymerization of PACs in AF-LuCI and sucralfate molecule was determined using titration method based on the reversible protonation of hydroxo linkages in the PAC backbone. Approximately 10 mg of AF-LuCI were treated with 0.1N, 0.2N, 0.3N, 0.4N and 0.5N HCl solutions in different tubes. The samples were vortexed for 5 seconds followed by 1-hour incubation. The supernatant of each sample was then collected and the pH was measured using a pH meter. The same procedures were performed with sucralfate. The pH of the HCl solutions was measured as the control group and the difference between the control and the treated groups was calculated. The difference in pH corresponds to the proton consumption and the amount of hydroxo linkages that were then used to calculate the number of aluminum per molecule.

[2] = test system: normal Sprague-Dawley (SD) rats; experiment: OGTT with sucralfate; assay type: in vivo, rat
From the text: In contrast, sucralfate selectively binds to ulcerated mucosa where the bicarbonate secretion is malfunctioned (i.e. acidic), while on bicarbonate-neutralized healthy mucosa sucralfate forms loosely bound discrete solid aggregates attached on the surface rather than forming a continuous layer. […] The neutralized pH on mucus surfaces also compromised the barrier function of sucralfate due to the change of rheological properties.

[3] = Glucose barrier test on mucin-coated membrane in Franz cell; set-up: species or system porcine
Procedure: To examine the barrier properties of pastes formed from the new hydratable compositions in vitro, a mucin-coated membrane was prepared to mimic the mucus surface of the intestine. Specifically, a cellulose nitrate membrane (pore size: 0.2 μm, Whatman, Germany) was incubated in a 3% w/v porcine stomach mucin (SigmaAldrich, USA) solution in PBS (pH 7.4) and gently shaken for 2 hours at room temperature. The membrane was washed with distilled deionized water (DDW, pH 5.5) to remove the excess mucin solution. The mucin-coated membranes were used within 1 hour following preparation.
To measure the thickness of the mucin layer, the mucin-coated membrane was lyophilized and imaged using scanning electron microscope (SEM) and the thickness of randomly selected positions was examined (average mucin layer thickness: ˜100 μm). To test the nutrient barrier properties, 10 mg of sucralfate or AF-LuCI was added evenly to a mucin-coated membrane and vertically tilted for 1 minute. […]
The permeation tests were performed in triplicate for each material. The glucose concentration was measured using high performance liquid chromatography (HPLC, Agilent, USA) with an analytical C18 column (Zorbax Eclipse XDB-C18, Agilent). […]

[4] = native sucralfate, USP specification; cited from earlier work
[5] = Aluminum release in simulated gastrointestinal fluids; assay type: physicochemical
[6] = test system: Sprague-Dawley (SD) rats; experiment: microCT imaging of coating in the GI tract after gavage; assay type: in vivo; conditions: gavage into the stomach, AF-LuCI 450 mg/kg rat, imaged after 1 hr
Procedure: Sprague-Dawley (SD) rats were gavaged into the stomach with hydrated AF-LuCI pastes and imaged using micro-computed tomography (microCT). AF-LuCI pastes could be visualized on gastro-intestinal tissues without additional contrast agents owing to the presence of aluminum. For these experiments, rats were fasted overnight and gavaged directly into the stomach with 450 mg/kg rat of AF-LuCI paste hydrated in 0.9 w/v % normal saline solution. After 1 hr and 5 hr, the rats were anesthetized using isoflurane and imaged using microCT. […] FIG. 18A is a coronal plane view of SD rats gavaged with AF-LuCI 1 hr before the imaging. AF-LuCI formed a layer in stomach, duodenum and proximal intestine. FIGS. 18B and 18C are 3-dimensional views of SD rats gavaged with AF-LuCI (FIG. 18B) 1 hr and (FIG. 18C) 5 hr before the microCT imaging. AF-LuCI is attached on stomach, duodenum and proximal intestine at least for 5 hrs after gavage while sucralfate only formed sparsely scattered aggregates on the healthy mucosa

[7] = Thickness of paste layer on mucus-coated cellulose nitrate membrane
Procedure: Five hundred milligrams of AF-LuCI (excess) was added onto mucus-coated cellulose nitrate membrane (disk shape with 2 cm diameter) and DDW (pH 5.5), SGF (pH 1.0), or SIF (pH 6.5) was added immediately. After AF-LuCI becomes a paste and flow to form a layer (3-5 minutes), supernatant was removed and the paste-coated membrane was quickly frozen in −80° C. freezer to measure the thickness. The thickness of the mucus-coated cellulose nitrate membrane without AF-LuCI was separately measured as a baseline.

[8] = Dissolution in NaCl solutions; assay type: physicochemical; conditions: saturated NaCl solutions (~0.35 g/ml in water)
From the text: […] This is a characteristic behavior of liquid complex coacervate system (See Wang, Q. & Schlenoff, J. B. The Polyelectrolyte Complex/Coacervate Continuum. Macromolecules 47, 3108-3116 (2014); de Kruif, C. G., Weinbreck, F. & de Vries, R. Complex coacervation of proteins and anionic polysaccharides. Current Opinion in Colloid & Interface Science 9, 340-349 (2004); Veis, A. & Aranyi, C. PHASE SEPARATION IN POLYELECTROLYTE SYSTEMS. I. COMPLEX COACERVATES OF GELATIN. J. Phys. Chem. 64, 1203-1210 (1960)).

number of aluminum ions per molecule (degree of polymerization of PAC) [1]: 56.1±3.0 aluminum per molecule
release of original aluminum content ([5]; exposed to an acidic fluid, e.g. gastric fluid, for AF-LuCI relative to the aluminum content of commercial sucralfate): about 15.0 w/w %
release of aluminum ([5]; simulated gastric fluid (SGF, pH 1.0)): 15 w/w % of total aluminum content
thickness of layer ([7]; SGF (pH 1.0)): ~250 μm
layer formation ([7]; distilled water or SIF): did not form any layer
fraction dissolved [8]: Less than 5 w/w %
Substance: sucralfate
area under curve (AUC) in OGTT versus saline treated group [2]: no significant difference
glucose penetration blocked ([3]; SGF, 10 mg on membrane, 120 g/L glucose, 5 minutes): ~60%
glucose blocked ([3]; applied on mucus-coated membrane in pH 1.0, then solution of pH 4.0 added): 16.5%
USP regulation on the aluminum content [4]: 15.5-18.5 w/w % of the total weight
layer formation in the GI tract (microCT) [6]: did not form a layer

Reference: patent publication US11666597B2, “Water-activated mucoadhesive compositions to reduce intestinal absorption of nutrients” (The Brigham and Women's Hospital, Inc., priority 2015, dated 2023)
